# According to patent publication US5106857A, “N-(1-methyl-3-pyrrolidinyl)-1-(phenylmethyl)-1H-benzimidazol-2-amine and analogs as antiarrhythmic and muscle relaxing agents” (A. H. Robins Company, Incorporated, priority 1991, dated 1992):
# Columns and labels:
# [1] = system: morphine-induced Straub Tail; test: Morphine-induced Straub Tail in Mice Test (muscle relaxant); type: in vivo; conditions: scored 30 min after test compound; for ED50: Mus musculus, 0.5 h, IP, morphine sulfate 60 mg/kg s.c. 15 min later, read-out: Straub Tail Inhibition ED50
# Description: Administration of morphine sulfate to a mouse causes the tail to become elevated perpendicular to the body. […] The test procedure relied on to indicate positive muscle relaxant activity is the morphine-induced Straub Tail in Mice Test described by G. D. Novak in DRUG DEVELOPMENT RESEARCH (1982) 2: 383-386, except 8 animals per group were used per test rather than 10. The test is summarized as follows: The test drug, reference drug, and control articles to be administered are prepared in saline, 0.5% aqueous methylcellulose suspension or other, depending on solubility, in such concentration that the volume administered is 10 ml/kg. The initial screening dose of the test drug is usually 100 mg/kg. Groups of 8 mice are given an IP dose of a compound or vehicle prepared as described above. After 15 min, mice are administered morphine sulfate, 60 mg/kg in saline, subcutaneously. Fifteen minutes after administration of morphine (i.e., 30 min after test compound administration), mice were scored for presence of Straub Tail defined as an elevation of the tail at least 90 degrees from the horizontal. An ED50 value may be determined from at least three logarithmically spaced doses by the method of Litchfield and Wilcoxon (1949), J. PHARMACOL. EXP. THER. 96: 99-113.
# [2] = system: cardiac arrhythmias (coronary artery occlusion); test: Coronary artery ligation induced arrhythmias (conscious dogs); type: in vivo, dog (adult mongrel); conditions: for Antiarrhythmic Activity: Number of dogs in which drug is considered active/number treated: active = normal sinus rhythm within 2 hours
# Description: Cardiac arrhythmias in dogs are induced by surgically restricting blood flow in a coronary artery. The test compound is administered intravenously and the heart rate and number and percentage of ectopic beats recorded at 15 minute intervals.
# Adult mongrel dogs which are in the conscious state were used for the test and cardiac arrhythmias were induced by prior (22-24 hr) surgical preparation in which blood flow through a coronary artery was occluded by use of a constrictor device as reported by Smith et al, 1973. A Grass Model 79 Polygraph was used for recording the electrocardiogram (Grass 7P4 Preamplifier).
# The test compound was administered by infusion (Harvard Model 942 Infusion Pump) into a saphenous vein to the test group of dogs at a rate of 0.5 mg/kg/min. Concentration of compound was adjusted according to the weight of the dog to allow a volume of infusion of 0.5 ml/min. Following the administration of the test compound, the heart rate, number of ectopic beats (ectopic beats/HR×1000) were recorded at 15 min intervals. The compound was considered active if it abolished the ectopic ventricular frequency and caused a return to normal sinus rhythm within 2 hours of administration. Cardiac arrhythmias produced by modification of method of Harris, 1950, Circulation 1, 1318, as reported by Smith et al, 1973, Pharmacologist 15, 192.
compound,measurement,setting,value
"CCN1CCC(Nc2nc3ccccc3n2CC)C1 (stereo not shown) [Compound 1, 1-Ethyl-N-(1-ethyl-3-pyrrolidinyl)-1H-benzimidazol-2-amine]",ED50,[1],36 mg/kg
same,Antiarrhythmic Activity: Number of dogs in which drug is considered active/number treated,[2]; dose 5 mg/kg IV,1/2
"CN1CCC(Nc2nc3ccccc3n2Cc2ccccc2)C1 (stereo not shown) [Compound 3, N-(1-Methyl-3-pyrrolidinyl)-1-(phenylmethyl)-1H-benzimidazol-2-amine]",ED50,[1],21 mg/kg
same,Antiarrhythmic Activity: Number of dogs in which drug is considered active/number treated,[2]; dose 7 mg/kg IV,7/8
"CN1CCC(Nc2nc3ccccc3n2Cc2ccccc2)CC1 [Compound 4, N-(1-Methyl-4-piperidinyl)-1-(phenylmethyl)-1H-benzimidazol-2-amine]",Straub Tail Inhibition %,[1]; dose 100 mg/kg IP,-25%
same,Antiarrhythmic Activity: Number of dogs in which drug is considered active/number treated,[2]; dose 9 mg/kg IV,2/6
"CCn1c(NC2CCN(C)C2)nc2ccccc21 (stereo not shown) [Compound 2, 1-Ethyl-N-(1-methyl-3-pyrrolidinyl)-1H-benzimidazol-2-amine]",Antiarrhythmic Activity,[2]; dose 7 mg/kg IV,partially active (Reduces ectopic beats from 50-99%)
